From patent US11046714B2, “2,2-difluorodioxolo A2A receptor antagonists” (Merck Sharp & Dohme Corp., priority 2013, dated 2021)

Target: human A2A receptor (Homo sapiens (Human), UniProt P29274)
Experiment: competition binding assay using Scintillation Proximity technology
Settings: membranes from CHO-K1 cells expressing the human A2a receptor; 2.0 nM tritiated compound; Cheng-Prusoff
Description: The utility of the compounds in accordance with the present invention as A2A receptor antagonists may be readily determined without undue experimentation by methodologies well known in the art, including by a competition binding assay using Scintillation Proximity technology. Briefly, membranes from CHO-K1 cells expressing the human A2A receptor are incubated with a test compound at various concentrations, e.g., ranging from 3000 nM to 0.15 nM, in a reaction mixture also containing a tritiated form of 5-amino-7-[2-phenethyl]-2-(furan-2-yl)-7H-pyrazolo[4,3-e][1,2,4]triazolo[1,5-c]pyrimidine (the tritiated compound) and wheatgerm agglutin-coated yttrium silicate SPA beads at room temperature. The beads are then allowed to settle to the bottom of the wells, after which the membrane-associated radioactivity is determined by scintillation counting in a microplate reader. Ki values can be determined using the Cheng-Prusoff equation.
Thus, 1.0 μg of membranes from CHO-K1 cells expressing the human A2a receptor were incubated with a compound of the invention at concentrations ranging from 3000 nM to 0.15 nM in a reaction mixture also containing 2.0 nM of a tritiated form of 5-amino-7-[2-phenethyl]-2-(furan-2-yl)-7H-pyrazolo[4,3-e][1,2,4]triazolo[1,5-c]pyrimidine (the tritiated compound) and 100 μg of wheatgerm agglutin-coated yttrium silicate SPA beads for one hour at room temperature with agitation. The beads were then allowed to settle to the bottom of the wells for 1 hr, after which the membrane-associated radioactivity was determined by scintillation counting in a TopCount microplate reader. Ki values were determined using the Cheng-Prusoff equation.
Summary of Materials and Methods Used in A2a Activity Determination:
• Membranes from CHO-K1 cells expressing the human Adenosine2A receptor (Perkin-Elmer #RBHA2AM400UA). • The tritiated compound was prepared according to published methods. • Wheatgerm agglutinin-coated yttrium silicate SPA beads (GE Healthcare #RPNQ0023). Dilute to 25 mg/ml in Assay Buffer. • Assay Buffer: Dulbecco's calcium and magnesium free phosphate buffered saline+10 mM MgCl2 • Adenosine deaminase (ADA) from calf intestine, 10 mg/2 ml (Roche #10 102 105 001). • DMSO • A2a antagonist standard (9-chloro-1-(2-furanyl)-[1,2,4]triazolo[1,5-c]quinazolin-5-amine from Tocris Bioscience) Compound Dilution • Make eight 1:3 serial dilutions in 100% DMSO from a 3 mM compound stock. • Transfer 50 nL of compound into a 384-well OptiPlate (Perkin Elmer). • Typically, final concentrations of compound used in the assay ranged from 3000 nM to 0.152 nM. Radioisotope • Dilute a solution of the tritiated compound to 5.0 nM in assay buffer. This is a 2.5× solution. The final concentration in the assay is 2.0 nM. Calculate the concentration by counting two 5 μL aliquots. Membrane Preparation • Use 1.0 μg of membrane/well. Dilute membranes to 33 μg/mL in assay buffer. Treat with 20 μg/mL ADA for 15 minutes at room temperature to degrade endogenous adenosine. Membrane-Bead Mixture • Use 100 μg/well wheatgerm agglutinin-coated yttrium silicate SPA beads. • Mix ADA-treated membranes and SPA beads together for 30 min prior to assay. Assay Assembly • To the Perkin-Elmer Optiplate-384 containing the compound titration add 20 μL of 2.5× solution of the tritiated compound and 30 μL of the membrane-bead mixture. Incubate for one hour at room temperature with agitation. • Include total binding (assay buffer+1% DMSO) and non-specific binding (CGS 15943, 1 μM) wells. Counting • Allow the beads to settle for one hour. • Count in TopCount. Calculations • A curve fitting program (i.e., Prism, Activity Base, Chemcart) is used to determine the EC50. The Ki value is calculated using the Cheng-Prusoff equation. Ki=EC50/(1+(radioligand concentration/Kd))

human A2A receptor, sequence (P29274 whole entry): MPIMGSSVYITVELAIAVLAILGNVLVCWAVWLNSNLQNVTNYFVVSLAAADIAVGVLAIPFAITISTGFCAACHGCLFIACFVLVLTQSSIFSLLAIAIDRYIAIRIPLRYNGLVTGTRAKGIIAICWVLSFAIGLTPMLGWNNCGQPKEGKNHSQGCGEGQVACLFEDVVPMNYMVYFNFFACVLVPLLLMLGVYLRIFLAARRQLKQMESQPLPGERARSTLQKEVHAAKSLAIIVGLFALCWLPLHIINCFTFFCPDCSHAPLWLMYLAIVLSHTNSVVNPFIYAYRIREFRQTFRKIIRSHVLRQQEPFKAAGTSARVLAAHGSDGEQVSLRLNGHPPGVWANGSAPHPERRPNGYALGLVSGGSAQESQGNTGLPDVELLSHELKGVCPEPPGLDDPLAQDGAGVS

Ki [nM]	SMILES
140	Nc1nc2c3c(ccc2c2nc(C4CCCN(c5cc(F)cc(F)c5)C4)nn12)OC(F)(F)O3 (single isomer, unassigned) [Example 145, (R or S)-8-[1-(3,5-difluorophenyl)piperidin-3-yl]-2,2-difluoro[1,3] dioxolo[4,5-h][1,2,4]triazolo[1,5-c]quinazolin-5-amine]
75	COCCN1CCC(Cc2nc3c4ccc5c(c4nc(N)n3n2)OC(F)(F)O5)C1 (single isomer, unassigned) [Example 157, (R or S)-2,2-difluoro-8-{[1-(2-methoxyethyl)pyrrolidin-3-yl]methyl}[1,3]dioxolo [4,5-h][1,2,4]triazolo[1,5-c]quinazolin-5-amine]
44	Nc1nc2c3c(ccc2c2nc(C4CCCN(c5cncnc5)C4)nn12)OC(F)(F)O3 (single isomer, unassigned) [Example 146, (R or S)-2,2-difluoro-8-(1-pyrimidin-5-ylpiperidin-3-yl)[1,3]dioxolo[4,5-h][1,2,4]triazolo[1,5-c]quinazolin-5-amine]
2.7	Nc1nc2c3c(ccc2c2nc(CC(CO)CO)nn12)OC(F)(F)O3 [Example 149, 2-[(5-amino-2,2-difluoro[1,3]dioxolo[4,5-h][1,2,4]triazolo[1,5-c]quinazolin-8-yl)methyl]propane-1,3-diol]
1	Nc1nc2c3c(ccc2c2nc([C@@H]4CCCN(CC(F)(F)F)C4)nn12)OC(F)(F)O3 [Example 138, (R)-2,2-difluoro-8-(1-(2,2,2-trifluoroethyl)piperidin-3-yl)-[1,3]dioxolo[4,5-h][1,2,4]triazolo[1,5-c]quinazolin-5-amine]
4.4	Nc1nc2c3c(ccc2c2nc(CN4C[C@H](F)[C@@H](F)C4)nn12)OC(F)(F)O3 [Example 115, 8-{[(3S,4S)-3,4-difluoropyrrolidin-1-yl]methyl}-2,2-difluoro[1,3] dioxolo[4,5-h][1,2,4]triazolo[1,5-c]quinazolin-5-amine]
1.7	Nc1nc2c3c(ccc2c2nc(CN4CCC(F)(F)CC4)nn12)OC(F)(F)O3 [Example 119, 8-[(4,4-difluoropiperidin-1-yl)methyl]-2,2-difluoro[1,3]dioxolo[4,5-h][1,2,4] triazolo[1,5-c]quinazolin-5-amine]
4.9	Nc1nc2c3c(ccc2c2nc(CN4Cc5ccc(C(F)(F)F)cc5C4)nn12)OC(F)(F)O3 [Example 123, 2,2-difluoro-8-{[5-(trifluoromethyl)-1,3-dihydro-2H-isoindol-2-yl]methyl} [1,3]dioxolo[4,5-h][1,2,4]triazolo[1,5-c]quinazolin-5-amine]
4.9	Nc1nc2c3c(ccc2c2nc(CN4CCC(Oc5ccc(F)cc5)CC4)nn12)OC(F)(F)O3 [Example 117, 2,2-difluoro-8-{[4-(4-fluorophenoxy)piperidin-1-yl]methyl}[1,3]dioxolo [4,5-h][1,2,4]triazolo[1,5-c]quinazolin-5-amine]

The next lines start with the molecule.

SMILES	Ki [nM]
C[C@H](Cc1nc2c3ccc4c(c3nc(N)n2n1)OC(F)(F)O4)N1CCc2cccnc2C1 [Example 78, 8-[(2R)-2-(5,8-dihydro-1,7-naphthyridin-7(6H)-yl)propyl]-2,2-difluoro[1,3]dioxolo[4,5-h] [1,2,4]triazolo[1,5-c]quinazolin-5-amine]	1.4
C[C@H](Cc1nc2c3ccc4c(c3nc(N)n2n1)OC(F)(F)O4)N1CCc2cccnc21 [Example 75, 8-[(2R)-2-(2,3-dihydro-1H-pyrrolo [2,3-b]pyridin-1-yl)propyl]-2,2-difluoro[1,3]dioxolo[4,5-h][1,2,4] triazolo[1,5-c]quinazolin-5-amine]	4.2
Cc1ncc(N2CCN(Cc3nc4c5ccc6c(c5nc(N)n4n3)OC(F)(F)O6)[C@H](C)C2)s1 [Example 107, 2,2-difluoro-8-{[(2R)-2-methyl-4-(2-methyl-1,3-thiazol-5-yl)piperazin-1-yl]methyl}[1,3]dioxolo[4,5-h][1,2,4] triazolo[1,5-c]quinazolin-5-amine]	4
Nc1nc2c3c(ccc2c2nc(CCN4CCCC(F)(F)C4)nn12)OC(F)(F)O3 [Example 29, 8-[2-(3,3-difluoropiperidin-1-yl)ethyl]-2,2-difluoro[1,3] dioxolo[4,5-h][1,2,4]triazolo [1,5-c]quinazolin-5-amine]	1.6
Nc1nc2c3c(ccc2c2nc(CCN4Cc5ccc(F)cc5C4)nn12)OC(F)(F)O3 [Example 8, 2,2-difluoro-8-[2-(5-fluoro-1,3-dihydro-2H-isoindol-2-yl)ethyl][1,3]dioxolo[4,5-h][1,2,4]triazolo[1,5-c]quinazolin-5-amine]	2.1
Nc1nc2c3c(ccc2c2nc(CN4CC(F)(C(F)(F)F)C4)nn12)OC(F)(F)O3 [Example 114, 2,2-difluoro-8-{[3-fluoro-3-(trifluoromethyl)azetidin-1-yl]methyl} [1,3]dioxolo[4,5-h][1,2,4]triazolo[1,5-c]quinazolin-5-amine]	1.4
Nc1nc2c3c(ccc2c2nc(CCN4CCCC(F)(C(F)(F)F)C4)nn12)OC(F)(F)O3 (single isomer, unassigned) [Example 72, (R or S)-2,2-difluoro-8-(2-(3-fluoro-3-(trifluoromethyl)piperidin-1-yl)ethyl)-[1,3]dioxolo[4,5-h][1,2,4]triazolo[1,5-c]quinazolin-5-amine]	0.9
C[C@H](Cc1nc2c3ccc4c(c3nc(N)n2n1)OC(F)(F)O4)N1CCCC(C)(F)C1 (single isomer, unassigned) [Example 85, 2,2-difluoro-8-{(2R)-2-[(3R or 3S)-3-fluoro-3-methylpiperidin-1-yl]propyl}[1,3]dioxolo[4,5-h][1,2,4]triazolo[1,5-c]quinazolin-5-amine]	12
Nc1nc2c3c(ccc2c2nc(CCN4CCN(CC5CC5)C(=O)C4)nn12)OC(F)(F)O3 [Example 48, 4-[2-(5-amino-2,2-difluoro[1,3]dioxolo[4,5-h][1,2,4]triazolo [1,5-c]quinazolin-8-yl)ethyl]-1-(cyclopropylmethyl)piperazin-2-one]	0.8
Nc1nc2c3c(ccc2c2nc(CCNC4CC5(CNC5)C4)nn12)OC(F)(F)O3 [Example 57, 8-[2-(2-azaspiro[3.3]hept-6-ylamino)ethyl]-2,2-difluoro [1,3]dioxolo[4,5-h][1,2,4] triazolo[1,5-c]quinazolin-5-amine]	90
CC1(F)CCN(CCc2nc3c4ccc5c(c4nc(N)n3n2)OC(F)(F)O5)CC1 [Example 28, 2,2-difluoro-8-[2-(4-fluoro-4-methylpiperidin-1-yl)ethyl] [1,3]dioxolo[4,5-h][1,2,4] triazolo[1,5-c]quinazolin-5-amine]	11
Nc1nc2c3c(ccc2c2nc(CCN4CCC5(CCNCC5)C4)nn12)OC(F)(F)O3 [Example 53, 8-[2-(2,8-diazaspiro[4.5]dec-2-yl)ethyl]-2,2-difluoro[1,3] dioxolo[4,5-h][1,2,4]triazolo [1,5-c]quinazolin-5-amine]	39
Cc1ncc(N2CCN(CCc3nc4c5ccc6c(c5nc(N)n4n3)OC(F)(F)O6)[C@H](C)C2)s1 [Example 45, 2,2-difluoro-8-{2-[(2R)-2-methyl-4-(2-methyl-1,3-thiazol-5-yl)piperazin-1-yl]ethyl} [1,3]dioxolo[4,5-h][1,2,4] triazolo[1,5-c]quinazolin-5-amine]	1.5
Nc1nc2c3c(ccc2c2nc(CCN4CC[C@@H](c5ccccc5)C4)nn12)OC(F)(F)O3 [Example 36, 2,2-difluoro-8-{2-[(3S)-3-phenylpyrrolidin-1-yl]ethyl}[1,3]dioxolo[4,5-h][1,2,4]triazolo[1,5-c]quinazolin-5-amine]	39
